A short description of series [1]: Inter-conversion of Form A and Form α of lesinurad sodium salt by stirring in water (XRPD). The series is classed as physicochemical.
A short description of series [2]: Stability assessment of Form III under stress conditions (XRPD). The conditions noted are these: 14 days; for Final form: dish open, XRPD. The format is physicochemical. As for the experimental part:
(§1) Analytical Instrument: Panalytical Empyrean. The X-ray powder diffractogram was determined by mounting a sample of the crystalline material on a Si single crystal low-background holder and spreading out the sample into a thin layer with the aid of a microscope slide. The 2θ position was calibrated against Panalytical 640 Si powder standard. The sample irradiated with X-rays generated by a copper long-fine focus tube operated at 45 kV and 40 mA with a wavelength of Kα1=1.540589 angstroms and Kα2=1.544426 angstroms (Kα1/Kα2 intensity ratio is 0.50). The collimated X-ray source was passed through a programmed divergence slit set at 10 mm and the reflected radiation directed through a 5.5 mm anti-scattering slit. The sample was exposed for 16.3 seconds per 0.013° 2-theta increment (continuous scan mode) over the range 3 degrees to 40 degrees 2-theta in theta-theta mode. The running time was 3 minutes and 57 seconds. The instrument was equipped with an RTMS detector (X'Celerator). Control and data capture was accomplished by means of a Dell Optiplex 780 XP operating with data collector software.
Two samples of lesinurad Form III were stored under 25° C./60% RH and 40° C./75% RH, respectively, with dish open for 14 days. The solid samples were analyzed by XRPD.

Series [3] is described as follows: Hygroscopicity assessment by dynamic vapor sorption (DVS). The format is physicochemical. The conditions noted are these: 25° C. As for the experimental part:
Dynamic Vapor Sorption (DVS) was measured via a SMS (Surface Measurement Systems) DVS Intrinsic. The relative humidity at 25° C. were calibrated against deliquescence point of LiCl, Mg(NO3)2 and KCl. Typical Parameters for DVS test are listed below.
Hygroscopicity of lesinurad Form III was investigated using dynamic vapor sorption (DVS).
Hygroscopicity criteria applied in this example refer to the standard in European pharmacopoeia: • deliquescent: sufficient water is absorbed to form a liquid, • very hygroscopic: increase in mass is equal to or greater than 15 percent, • hygroscopic: increase in mass is less than 15 percent and equal to or greater than 2 percent, • slightly hygroscopic: increase in mass is less than 2 percent and equal to or greater than 0.2 percent.

A short description of series [4]: Stability assessment of lesinurad sodium salt Form β on storage (XRPD). The series is classed as physicochemical. As to conditions: room temperature, 12 months. As for the experimental part: as §1
A sample of the lesinurad sodium salt Form β was stored under room temperature for 12 months. The solid sample was analyzed by XRPD.

For series [5], the system named is gout patients. As to conditions: Phase III, gout patients without benefit from allopurinol and febuxostat, lesinurad alone; cited from earlier work.

Counter-ions that a name gives are not always drawn.

Regarding `O=C(O)CSc1nnc(Br)n1-c1ccc(C2CC2)c2ccccc12` [Form A, lesinurad sodium salt, reference compound], in series [1] (water, 500 rpm, 24 hours, ambient conditions, XRPD), the “Form conversion after stirring in water” value is “converts to Form α”.

As to `O=C(O)CSc1nnc(Br)n1-c1ccc(C2CC2)c2ccccc12` [Form III, 2-((5-bromo-4-(4-cyclopropylnaphthalen-1-yl)-4H-1,2,4-triazol-3-yl)thio)acetic acid], the “Stability under the stress conditions” value in series [2] (25° C./60% RH and 40° C./75% RH) is “stable under the stress conditions”. The Final form entry in series [2] (25° C./60% RH) is “Form III”. Also, in series [2] (40° C./75% RH), the Final form entry is reported as “Form III”. In addition, in series [3] (80% RH), the “Water uptake under 80% RH” value is recorded as 0.8%; the “Hygroscopicity (European pharmacopoeia criteria)” value was “slightly hygroscopic (increase in mass is less than 2 percent and equal to or greater than 0.2 percent)”. For the same compound, the “Water uptake under 95% RH” value in series [3] (95% RH) worked out at 2.4%.

As for `O=C(O)CSc1nnc(Br)n1-c1ccc(C2CC2)c2ccccc12` [Form α, lesinurad sodium salt], the “Relative stability in water” value in series [1] (in water under ambient conditions) is on record as “more stable in comparison to Form A”.

Consider `O=C(O)CSc1nnc(Br)n1-c1ccc(C2CC2)c2ccccc12` [Form β, lesinurad sodium salt], for which, in series [4], the “Stability under the stress conditions” value is recorded as “stable under the stress conditions”. Also, the Final form result in series [4] (XRPD) is “salt Form β”.

In the case of `O=C(O)CSc1nnc(Br)n1-c1ccc(C2CC2)c2ccccc12` [lesinurad, 2-((5-bromo-4-(4-cyclopropylnaphthalen-1-yl)-4H-1,2,4-triazol-3-yl)thio)acetic acid], the “Serum levels of uric acid” value in series [5] is “significantly reduced serum levels of uric acid”.
